The source of these data is PMC7696940, “Effects of Rationally Designed Physico-Chemical Variants of the Peptide PuroA on Biocidal Activity towards Bacterial and Mammalian Cells” (International Journal of Molecular Sciences, 2020).

Converted amounts (≈) assume the structure as drawn. Where no end group is shown, it is not given here. Some results are limits rather than exact numbers.

One series has as its system NIH-3T3 cells. Description: Cytotoxicity, MTT assay. In kind it is cell-based, mouse. Particulars: 24 h; for IC50 NIH-3T3: peptide up to 250 µg/mL, concentration causing 50% cell growth inhibition, mean of triplicate assays. An outline of the steps:
(§1)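 HeLa and NIH-3T3 cells seeded at 1 × 10^4 cells/well, adhered 24 h, then exposed to serially diluted peptides (final 4 to 250 µg/mL) for 24 h at 37 °C in DMEM/10% FBS. MTT 0.33 mg/mL for 3 h, formazan in DMSO read at 570 nm; viability vs untreated cells, IC50 as 50% growth inhibition; triplicate.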
For orientation: Tetrazolium assays rely on reduction of a dye to a coloured formazan, in cell work by metabolically active cells.

Another series relates to MRSA M173525 biofilm. Description: Inhibition of preformed 6 h biofilm (CV and MTT assays). Particulars: 37 °C, triplicate. The class given is cell-based, methicillin-resistant Staphylococcus aureus. How it is done:
The effects of PuroA and other selected peptides (based on their antibacterial activity) on both the initial cell attachment and 6 h preformed biofilms of MRSA on polystyrene were tested as described by Jadhav et al., at their respective 0.5 × MIC, 1 × MIC, and 2 × MIC concentrations. All tests were conducted in triplicate. For testing the inhibition of initial cell attachment, 100 μL of peptide solutions were added to the microtitre plates, then mixed with 100 μL of M173525 cell suspension (1 × 10^6 CFU/mL, cultured in tryptic soy broth medium (TSB; Oxoid) containing 1% glucose), or 100 μL of sterile MilliQ water as negative control. The plates were incubated at 37 °C for 24 h to allow cell attachment. The biofilm formation was then assessed using CV and MTT assays. […] Peptide solutions (100 μL) were then added, the plates incubated at 37 °C for 1 h and the biofilms assessed.
The assay works as an indicator of attached living and non-living biomass. Indirect assessment of cell attachment of MRSA was estimated using the modified CV assay as per Jadhav et al.. After incubations of the plates (for 24 h or 1 h, as above), the culture medium from each well was removed gently and any non-adherent bacteria removed by washing the plates five times with sterile distilled water (dH2O). The plates were air-dried, then oven-dried at 60 °C for 1 h. The biofilm cells in the wells were stained with 100 μL of 1% CV and incubated for 15 min at room temperature. Excess stain was removed by washing the plates three times with sterile dH2O. Ethanol (95%, 125 µL) was transferred to each well to de-stain the cells. The de-staining solution from each well was then transferred to a new plate and its absorbance measured at 595 nm. The percentage inhibition of biomass formation concentration was calculated as: ((OD595 nm control well without peptide − OD5 95 well with peptide)/OD595 nm control well without peptide) × 100. All tests were conducted in triplicate.
A modified methylthiazotetrazolium (MTT) (3-[4,5-dimethyl thiazol-2-yl]-2, 5-diphenyltetrazolium bromide) reduction assay was used, wherein the blue product (MTT salt reduced to formazan by dehydrogenases) is taken as a respiratory indicator of live cells. Briefly, MTT (Sigma-Aldrich, Gillingham, UK) was dissolved in PBS to 5 mg/mL. After incubations of plates (for 24 h or 1 h, as above), the culture medium was gently removed and the plates air-dried. PBS (100 μL) and MTT (5 µL, 5 mg/mL) were added to each well and the plates incubated for 3 h at 37 °C. The insoluble purple product was dissolved in 100 µL of dimethyl sulphoxide (DMSO, Sigma-Aldrich, Gillingham, UK) and the absorbance measured at 570 nm. The % inhibition of metabolic activity was calculated as: ((OD570 nm control well without peptide − OD570 nm well with peptide)/OD570 nm control well without peptide) × 100. All tests were conducted in triplicate.

Another series deals with S. aureus ATCC25923. In kind it is cell-based, Staphylococcus aureus. Conditions: MHB; for MIC S. aureus, No NaCl: 0 mM NaCl; for MIC S. aureus, No NaCl / MIC S. aureus, With 50mM NaCl / MIC S. aureus, With 100mM NaCl / MIC S. aureus, With 150mM NaCl: triplicate, mode; for MIC S. aureus ATCC25923: 37 °C overnight, A595, mode of three independent experiments. A digest of the protocol:
(§2)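 Broth microdilution MICs in Mueller-Hinton broth, ~1×10^6 CFU/mL inoculum, peptides at final 250–0.5 μg/mL, overnight at 37 °C, growth by A595; triplicate, mode reported. For salt tolerance, S. aureus and E. coli were tested in MHB containing 0, 50, 100 or 150 mM NaCl.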

The subject of another series is E. coli ATCC25922. The class given is cell-based, Escherichia coli. Conditions: MHB; for MIC E. coli, No NaCl: 0 mM NaCl; for MIC E. coli, No NaCl / MIC E. coli, With 50mM NaCl / MIC E. coli, With 100mM NaCl / MIC E. coli, With 150mM NaCl: triplicate, mode; for MIC E. coli ATCC25922: 37 °C overnight, A595, mode of three independent experiments. A digest of the protocol: as §2

Another series deals with HeLa cells. In kind it is cell-based, human. Particulars: MTT, 24 h, peptide up to 250 µg/mL; concentration causing 50% cell growth inhibition; mean of triplicate assays. An outline of the steps: as §1

`CC(C)[C@H](NC(=O)[C@@H]1CCCN1C(=O)[C@@H](N)Cc1ccccc1)C(=O)N[C@H](C(=O)N[C@@H](Cc1c[nH]c2ccccc12)C(=O)N[C@@H](CCCNC(=N)N)C(=O)N[C@@H](Cc1c[nH]c2ccccc12)C(=O)N[C@@H](Cc1c[nH]c2ccccc12)C(=O)N[C@@H](CCCCN)C(=O)N[C@@H](Cc1c[nH]c2ccccc12)C(=O)N[C@@H](Cc1c[nH]c2ccccc12)C(=O)N[C@@H](CCCCN)C(=O)NCC(N)=O)[C@@H](C)O` [PuroA]: the “IC50 NIH-3T3” value in the series on NIH-3T3 cells was determined as 250 µg/mL (≈ 134 µM). Further, in the series with MRSA M173525 biofilm (0.5 × MIC), the “% Inhibition of Preformed 6 h MRSA Biofilm after 1 h Incubation, CV” value (“% Inhibition … CV” for short) is 68 ± 9.2% and the “% Inhibition of Preformed 6 h MRSA Biofilm after 1 h Incubation, MTT” value (shortened to “% Inhibition … MTT”) amounted to 90 ± 2.5%. For the same molecule, in the series on MRSA M173525 biofilm (1 × MIC), the “% Inhibition … CV” value is on record as 75 ± 7.5% and the “% Inhibition … MTT” value was 92 ± 4.0%. In addition, in the series with MRSA M173525 biofilm (2 × MIC), the “% Inhibition … CV” value was determined as 77 ± 7.0% and the “% Inhibition … MTT” value is recorded as 95 ± 2.6%. Moreover, in the series with S. aureus ATCC25923, the “MIC S. aureus, No NaCl” value amounted to 16 µg/mL (≈ 8.59 µM); the “MIC S. aureus, With 50mM NaCl” value is 16 µg/mL (≈ 8.59 µM); the “MIC S. aureus, With 100mM NaCl” value was 32 µg/mL (≈ 17.2 µM); the “MIC S. aureus, With 150mM NaCl” value came out at 64 µg/mL (≈ 34.4 µM). Besides, the “MIC S. aureus ATCC25923” value against S. aureus ATCC25923 stood at 16 µg/mL (≈ 8.59 µM). In the series with E. coli ATCC25922, the “MIC E. coli, No NaCl” value was found to be 16 µg/mL (≈ 8.59 µM); the “MIC E. coli, With 50mM NaCl” value was 16 µg/mL (≈ 8.59 µM); the “MIC E. coli, With 100mM NaCl” value was found to be 32 µg/mL (≈ 17.2 µM); the “MIC E. coli, With 150mM NaCl” value worked out at 64 µg/mL (≈ 34.4 µM). For the same molecule, in the series with E. coli ATCC25922, the “MIC E. coli ATCC25922” value worked out at 16 µg/mL (≈ 8.59 µM). Also, the “IC50 HeLa” value in the series on HeLa cells was more than 250 µg/mL.
Regarding RKRWWRWWKWWKR-NH2 [Peptide P1], the “IC50 NIH-3T3” value in the series with NIH-3T3 cells was 250 µg/mL. Further, in the series on MRSA M173525 biofilm (0.5 × MIC), the “% Inhibition … CV” value stood at 70 ± 6.9% and the “% Inhibition … MTT” value was found to be 93 ± 5.0%. In the series with MRSA M173525 biofilm (1 × MIC), the “% Inhibition … CV” value amounted to 74 ± 5.8% and the “% Inhibition … MTT” value came out at 95 ± 3.8%. In the series with MRSA M173525 biofilm (2 × MIC), the “% Inhibition … CV” value is recorded as 78 ± 3.1% and the “% Inhibition … MTT” value amounted to 95 ± 4.0%. Also, in the series on S. aureus ATCC25923, the “MIC S. aureus, No NaCl” value came out at 16 µg/mL; the “MIC S. aureus, With 50mM NaCl” value came to 16 µg/mL; the “MIC S. aureus, With 100mM NaCl” value worked out at 16 µg/mL; the “MIC S. aureus, With 150mM NaCl” value stood at 16 µg/mL. For the same molecule, in the series with E. coli ATCC25922, the “MIC E. coli, No NaCl” value stood at 16 µg/mL; the “MIC E. coli, With 50mM NaCl” value stood at 16 µg/mL; the “MIC E. coli, With 100mM NaCl” value was determined as 16 µg/mL; the “MIC E. coli, With 150mM NaCl” value turned out to be 16 µg/mL. The “IC50 HeLa” value with HeLa cells came out at 32 µg/mL.
Consider WRWWKWW-NH2 [Peptide W7], for which the “IC50 NIH-3T3” value in the series with NIH-3T3 cells was 250 µg/mL. In the series on MRSA M173525 biofilm (0.5 × MIC), the “% Inhibition … CV” value is listed as 67 ± 6.0% and the “% Inhibition … MTT” value worked out at 88 ± 2.5%. In the series on MRSA M173525 biofilm (1 × MIC), the “% Inhibition … CV” value is on record as 75.5 ± 3.0% and the “% Inhibition … MTT” value was 90 ± 4.7%. Moreover, in the series with MRSA M173525 biofilm (2 × MIC), the “% Inhibition … CV” value was found to be 75 ± 5.5% and the “% Inhibition … MTT” value is 94 ± 0.5%. Further, in the series on S. aureus ATCC25923, the “MIC S. aureus, No NaCl” value is 8 µg/mL; the “MIC S. aureus, With 50mM NaCl” value came to 8 µg/mL; the “MIC S. aureus, With 100mM NaCl” value turned out to be 8 µg/mL; the “MIC S. aureus, With 150mM NaCl” value was found to be 8 µg/mL. The “MIC S. aureus ATCC25923” value in the series on S. aureus ATCC25923 stood at 8 µg/mL. In the series on E. coli ATCC25922, the “MIC E. coli, No NaCl” value amounted to 4 µg/mL; the “MIC E. coli, With 50mM NaCl” value is 4 µg/mL; the “MIC E. coli, With 100mM NaCl” value turned out to be 4 µg/mL; the “MIC E. coli, With 150mM NaCl” value came out at 4 µg/mL. Further, the “MIC E. coli ATCC25922” value against E. coli ATCC25922 is 4 µg/mL. For the same molecule, the “IC50 HeLa” value with HeLa cells stood at 250 µg/mL.
For the molecule WWRWWKWW-NH2 [WW], the “IC50 NIH-3T3” value in the series with NIH-3T3 cells was more than 250 µg/mL. Besides, the “Cytotoxicity to NIH-3T3 mouse fibroblasts (in words)” value with NIH-3T3 cells (up to 250 µg/mL) was “no cytotoxicity”. In addition, in the series with MRSA M173525 biofilm (0.5 × MIC), the “% Inhibition … CV” value came out at 69 ± 7.8% and the “% Inhibition … MTT” value was determined as 91 ± 3.0%. Also, in the series on MRSA M173525 biofilm (1 × MIC), the “% Inhibition … CV” value was determined as 71 ± 4.5% and the “% Inhibition … MTT” value is 92 ± 3.5%. In the series on MRSA M173525 biofilm (2 × MIC), the “% Inhibition … CV” value came to 74 ± 2.0% and the “% Inhibition … MTT” value turned out to be 95 ± 1.7%. For the same molecule, in the series with S. aureus ATCC25923, the “MIC S. aureus, No NaCl” value amounted to 8 µg/mL; the “MIC S. aureus, With 50mM NaCl” value stood at 8 µg/mL; the “MIC S. aureus, With 100mM NaCl” value turned out to be 8 µg/mL; the “MIC S. aureus, With 150mM NaCl” value was determined as 8 µg/mL. In addition, the “MIC S. aureus ATCC25923” value in the series on S. aureus ATCC25923 is 8 µg/mL. Also, in the series on E. coli ATCC25922, the “MIC E. coli, No NaCl” value stood at 8 µg/mL; the “MIC E. coli, With 50mM NaCl” value amounted to 8 µg/mL; the “MIC E. coli, With 100mM NaCl” value was 8 µg/mL; the “MIC E. coli, With 150mM NaCl” value worked out at 8 µg/mL. Besides, in the series with E. coli ATCC25922, the “MIC E. coli ATCC25922” value stood at 8 µg/mL. In addition, the “IC50 HeLa” value in the series with HeLa cells is 250 µg/mL.
